How the values were obtained:
Experiment in all cases: Test C pre/postemergence
Format in all cases: in vivo
corn (Zea mays) = conditions: for Corn plant response rating: scale 0 to 100 (0 no effect, 100 complete control)
How it was run: (§1)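 We sprayed seeded pots preemergence and 2–18 cm seedlings postemergence with test chemicals in a non-phytotoxic solvent mixture including surfactant. Greenhouse plants were visually compared with untreated controls at 12 to 14 days and scored 0 (no effect) to 100 (complete control).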

kochia (Kochia scoparia) = conditions: for Kochia plant response rating: scale 0 to 100 (0 no effect, 100 complete control)
How it was run: as §1

[1] = system: eastern black nightshade (Solanum ptycanthum); conditions: Preemergence
How it was run: as §1

[2] = system: cocklebur (Xanthium strumarium); conditions: for Cocklebur plant response rating: scale 0 to 100 (0 no effect, 100 complete control)
How it was run: as §1

[3] = system: morningglory (Ipomoea coccinea); conditions: for Morningglory plant response rating: scale 0 to 100 (0 no effect, 100 complete control)
How it was run: as §1

[4] = system: johnsongrass (Sorghum halepense); conditions: for Johnsongrass plant response rating: scale 0 to 100 (0 no effect, 100 complete control)
How it was run: as §1

[5] = system: woolly cupgrass (Eriochloa villosa); conditions: for Cupgrass, Woolly plant response rating: scale 0 to 100 (0 no effect, 100 complete control)
How it was run: as §1

[6] = system: bermudagrass (Cynodon dactylon); conditions: for Bermudagrass plant response rating: scale 0 to 100 (0 no effect, 100 complete control)
How it was run: as §1

[7] = system: pigweed (Amaranthus retroflexus); conditions: for Pigweed plant response rating: scale 0 to 100 (0 no effect, 100 complete control)
How it was run: as §1

[8] = system: Surinam grass (Brachiaria decumbens); conditions: for Surinam Grass plant response rating: scale 0 to 100 (0 no effect, 100 complete control)
How it was run: as §1

[9] = system: common (oilseed) sunflower (Helianthus annuus); conditions: Preemergence
How it was run: as §1

[10] = system: common ragweed (Ambrosia elatior); conditions: for Ragweed plant response rating: scale 0 to 100 (0 no effect, 100 complete control)
How it was run: as §1

[11] = Postemergence, 250 g ai/ha, scale 0 to 100
[12] = Postemergence, 500 g ai/ha, scale 0 to 100
[13] = Preemergence, 62 g ai/ha, scale 0 to 100, 0 no effect, 100 complete control
[14] = Preemergence, 125 g ai/ha, scale 0 to 100
[15] = Preemergence, 250 g ai/ha, scale 0 to 100
[16] = Preemergence, 500 g ai/ha, scale 0 to 100
[17] = 62 g ai/ha, scale 0 to 100, 0 no effect, 100 complete control

## Nc1nc(C2CC2)nc(C=NO)c1Br [Compound 27]
Corn (Zea mays); Postemergence, 62 g ai/ha
  Corn plant response rating: 0
Corn (Zea mays); Postemergence, 125 g ai/ha
  Corn plant response rating: 0
Corn (Zea mays); [11]
  Plant response rating, Corn: 0
Corn (Zea mays); [12]
  Plant response rating, Corn: 0
Corn (Zea mays); [13]
  Plant response rating, Corn: 0
Corn (Zea mays); [14]
  Plant response rating, Corn: 10
Corn (Zea mays); [15]
  Plant response rating, Corn: 15
Corn (Zea mays); [16]
  Plant response rating, Corn: 25
Kochia (Kochia scoparia); Postemergence, 62 g ai/ha
  Kochia plant response rating: 0
Kochia (Kochia scoparia); Postemergence, 125 g ai/ha
  Kochia plant response rating: 20
Kochia (Kochia scoparia); [11]
  Plant response rating, Kochia: 50
Kochia (Kochia scoparia); [12]
  Plant response rating, Kochia: 60
Kochia (Kochia scoparia); [13]
  Plant response rating, Kochia: 0
Kochia (Kochia scoparia); [14]
  Plant response rating, Kochia: 0
Kochia (Kochia scoparia); [15]
  Plant response rating, Kochia: 30
Kochia (Kochia scoparia); [16]
  Plant response rating, Kochia: 45
[1]; [17]
  Plant response rating, Nightshade: 0
[1]; 125 g ai/ha, scale 0 to 100
  Plant response rating, Nightshade: 70
[1]; 250 g ai/ha, scale 0 to 100
  Plant response rating, Nightshade: 100
[1]; 500 g ai/ha, scale 0 to 100
  Plant response rating, Nightshade: 100
[2]; Postemergence, 62 g ai/ha
  Cocklebur plant response rating: 20
[2]; Postemergence, 125 g ai/ha
  Cocklebur plant response rating: 25
[2]; [11]
  Plant response rating, Cocklebur: 25
[2]; [12]
  Plant response rating, Cocklebur: 25
[2]; [13]
  Plant response rating, Cocklebur: 0
[2]; [14]
  Plant response rating, Cocklebur: 50
[2]; [15]
  Plant response rating, Cocklebur: 70
[2]; [16]
  Plant response rating, Cocklebur: 95
[3]; Postemergence, 62 g ai/ha
  Morningglory plant response rating: 20
[3]; Postemergence, 125 g ai/ha
  Morningglory plant response rating: 85
[3]; [11]
  Plant response rating, Morningglory: 85
[3]; [12]
  Plant response rating, Morningglory: 85
[3]; [13]
  Plant response rating, Morningglory: 0
[3]; [14]
  Plant response rating, Morningglory: 70
[3]; [15]
  Plant response rating, Morningglory: 95
[3]; [16]
  Plant response rating, Morningglory: 100
[4]; Postemergence, 62 g ai/ha
  Johnsongrass plant response rating: 0
[4]; Postemergence, 125 g ai/ha
  Johnsongrass plant response rating: 0
[4]; [11]
  Plant response rating, Johnsongrass: 0
[4]; [12]
  Plant response rating, Johnsongrass: 0
[4]; [13]
  Plant response rating, Johnsongrass: 0
[4]; [14]
  Plant response rating, Johnsongrass: 20
[4]; [15]
  Plant response rating, Johnsongrass: 45
[4]; [16]
  Plant response rating, Johnsongrass: 65
[5]; Postemergence, 62 g ai/ha
  Cupgrass, Woolly plant response rating: 0
[5]; Postemergence, 125 g ai/ha
  Cupgrass, Woolly plant response rating: 0
[5]; [11]
  Plant response rating, Cupgrass, Woolly: 0
[5]; [12]
  Plant response rating, Cupgrass, Woolly: 0
[5]; [13]
  Plant response rating, Cupgrass, Woolly: 0
[5]; [14]
  Plant response rating, Cupgrass, Woolly: 0
[5]; [15]
  Plant response rating, Cupgrass, Woolly: 10
[5]; [16]
  Plant response rating, Cupgrass, Woolly: 15
[6]; Postemergence, 62 g ai/ha
  Bermudagrass plant response rating: 0
[6]; Postemergence, 125 g ai/ha
  Bermudagrass plant response rating: 0
[6]; [11]
  Plant response rating, Bermudagrass: 0
[6]; [12]
  Plant response rating, Bermudagrass: 30
[6]; [13]
  Plant response rating, Bermudagrass: 0
[6]; [14]
  Plant response rating, Bermudagrass: 0
[6]; [15]
  Plant response rating, Bermudagrass: 0
[6]; [16]
  Plant response rating, Bermudagrass: 0
[7]; Postemergence, 62 g ai/ha
  Pigweed plant response rating: 5
[7]; Postemergence, 125 g ai/ha
  Pigweed plant response rating: 20
[7]; [11]
  Plant response rating, Pigweed: 30
[7]; [12]
  Plant response rating, Pigweed: 80
[7]; [13]
  Plant response rating, Pigweed: 20
[7]; [14]
  Plant response rating, Pigweed: 80
[7]; [15]
  Plant response rating, Pigweed: 90
[7]; [16]
  Plant response rating, Pigweed: 100
[8]; Postemergence, 62 g ai/ha
  Surinam Grass plant response rating: 0
[8]; Postemergence, 125 g ai/ha
  Surinam Grass plant response rating: 0
[8]; [11]
  Plant response rating, Surinam Grass: 0
[8]; [12]
  Plant response rating, Surinam Grass: 0
[8]; [13]
  Plant response rating, Surinam Grass: 0
[8]; [14]
  Plant response rating, Surinam Grass: 0
[8]; [15]
  Plant response rating, Surinam Grass: 20
[8]; [16]
  Plant response rating, Surinam Grass: 30
[9]; [17]
  Plant response rating, Sunflower: 0
[9]; 125 g ai/ha, scale 0 to 100
  Plant response rating, Sunflower: 20
[9]; 250 g ai/ha, scale 0 to 100
  Plant response rating, Sunflower: 90
[9]; 500 g ai/ha, scale 0 to 100
  Plant response rating, Sunflower: 95
[10]; Postemergence, 62 g ai/ha
  Ragweed plant response rating: 5
[10]; Postemergence, 125 g ai/ha
  Ragweed plant response rating: 20
[10]; [11]
  Plant response rating, Ragweed: 40
[10]; [12]
  Plant response rating, Ragweed: 50
[10]; [13]
  Plant response rating, Ragweed: 20
[10]; [14]
  Plant response rating, Ragweed: 65
[10]; [15]
  Plant response rating, Ragweed: 85
[10]; [16]
  Plant response rating, Ragweed: 95

— patent publication US8802597B2, “Herbicidal pyrimidines” (E I du Pont de Nemours and Company, priority 2003, dated 2014)
